± gives the expanded uncertainty stated by the source.
Assay: molar heat capacity at constant pressure
Settings: 101.33 kPa, Crystal, Small sample (50 mg) DSC

| SMILES | molar heat capacity at constant pressure (283 K) [J/K/mol] | molar heat capacity at constant pressure (293 K) [J/K/mol] | molar heat capacity at constant pressure (298 K) [J/K/mol] | molar heat capacity at constant pressure (303 K) [J/K/mol] | molar heat capacity at constant pressure (313 K) [J/K/mol] | molar heat capacity at constant pressure (323 K) [J/K/mol] | molar heat capacity at constant pressure (333 K) [J/K/mol] | molar heat capacity at constant pressure (343 K) [J/K/mol] | molar heat capacity at constant pressure (353 K) [J/K/mol] |
| --- | --- | --- | --- | --- | --- | --- | --- | --- | --- |
| O=[N+]([O-])C(=C1NCCN1)[N+](=O)[O-] [2-(dinitromethylene)-1,3-diazacyclopentane] | 197.45 ± 4 | 202.67 ± 4 | 205.28 ± 4.2 | 207.89 ± 4.2 | 213.29 ± 4.4 | 218.52 ± 4.4 | 223.74 ± 4.5 | 229.14 ± 4.5 | 234.36 ± 4.7 |
| CC1CNC(=C([N+](=O)[O-])[N+](=O)[O-])N1 (stereo not given) [2-(dinitromethylene)-4-methylimidazolidine] | 209.78 ± 4.1 | 215.8 ± 4.3 | 218.81 ± 4.3 | 221.82 ± 4.5 | 227.84 ± 4.5 | 233.86 ± 4.7 | 239.88 ± 4.9 | 245.9 ± 4.9 | 251.92 ± 5.1 |
| O=[N+]([O-])C(=C1NCCCCN1)[N+](=O)[O-] [2-(dinitromethylene)-1,3-diazacycloheptane] | 204.6 ± 4 | 211.67 ± 4.2 | 215.31 ± 4.2 | 218.75 ± 4.4 | 226.03 ± 4.4 | 233.1 ± 4.6 | 240.18 ± 4.9 | 247.25 ± 4.9 | 254.33 ± 5.1 |
| NC(N)=C([N+](=O)[O-])[N+](=O)[O-] [1,1-diamino-2,2-dinitroethene] | 169.55 ± 3.4 | 174.14 ± 3.6 | 176.51 ± 3.6 | 178.73 ± 3.6 | 183.32 ± 3.7 | 187.91 ± 3.7 | 192.5 ± 3.9 | 197.09 ± 4 | 201.68 ± 4 |
| O=[N+]([O-])C(=C1NCCCN1)[N+](=O)[O-] [2-(dinitromethylene)-1,3-diazacyclohexane] | 200.18 ± 4 | 205.26 ± 4.1 | 207.71 ± 4.1 | 210.16 ± 4.1 | 215.05 ± 4.3 | 220.13 ± 4.3 | 225.02 ± 4.5 | 230.1 ± 4.5 | 234.99 ± 4.7 |

Source: the NIST ThermoML archive (doi:10.1021/acs.jced.5b00021)
